Assay results from patent publication US11083197B2, “Herbicidal composition comprising chromone derivatives and a method for weed control” (INVESTIGACIONES BIOLÓGICAS EN AGROQUÍMICOS ROSARIO S.A., priority 2015, dated 2021).
Where two headings read alike, the source gives them in different places.

What was measured:
lettuce (Lactuca sativa) = experiment: Germination / dose-response bioassay with lettuce; assay type: in vivo; conditions: for Phytotoxicity at day 7, Lettuce: 1 mM, 24-well plates, rating scale of 0 to 5; for IC50 / inhibition at 1000 µg/mL: lettuce; for IC50: 7 days; for inhibition at 1000 µg/mL: 1 mg/mL, day 7; for lettuce germination: fractions at 1 mg/mL
Procedure: (§1) DCM extract of flowers of A. visnaga (1.6 g) was divided in two 800 mg halves and each one was subjected to column chromatography using an Isolera One system (Biotage), equipped with UV detector (302 and 365 nm) and automatic fraction collector. Separation was performed by normal-phase chromatography column using a SNAP Cartridge KP-Sil (37×157 mm, 50 μm irregular silica, 100 g, Biotage) and a pre-packaged SNAP Samplet Cartridge KP-Sil (37×17 mm, Biotage). A full gradient of hexane:ethyl acetate was used for elution, from 100:0 to 0:100 over 3000 ml. Flow was 40 ml/min and 25 ml fractions were collected. Equal fractions were combined based on similarities on their TLC and chromatogram profiles providing nineteen fractions named I to XIX. All fractions were evaluated for their phytotoxicity on germination bioassay of lettuce (L. sativa) and creeping bentgrass (A. stolonifera).
(§2) A filter paper and 5 lettuce or 10 mg of creeping bentgrass seeds were placed in each well of a 24-well plate. Stock solutions (10×) of test compounds were prepared in acetone. 180 μl of distilled water were added to each well together with 20 μl of stock solution or acetone in solvent control. Final concentration of acetone was 10% v/v. Plates were sealed with Parafilm, and incubated at 26° C. in a growth chamber set at 173 μmol m^−2 s^−1 continuous photosynthetically active radiation. Phytotoxic activity was qualitatively evaluated by visually comparing germination in each well with solvent control at 7 days. A qualitative estimation of phytotoxicity was obtained by using a rating scale of 0 to 5, where 0 was no effect, and 5 was no germination of seeds. This procedure was also used for testing the phytotoxicity of pure compounds on ryegrass. On this experiment 12-well plates were used. 10 seeds were placed per well and final volume was 300 μl in each one. During dose-response bioassays used for IC50 determination, germination percentage and length of plants were measured at 7 days in order to determine the concentration required for 50% germination and growth inhibition (IC50). All experiments were done in triplicate.
Using method described in Example 1, compounds of Formula III and IV above were tested against lettuce and ryegrass.
The percentage of germination and length of plants were determined at 7 days. Data represents means of three replicates±SD. The IC50 values, for both germination and growth inhibition by compounds III and IV on lettuce and ryegrass, were obtained from estimated parameters in the regression curves.
Statistical Analysis. Data from dose-response experiments were analyzed by a log-logistic model^37-38 using the dose-response curve module^39 of R software version 2.2.1.^40 Concentrations required for 50% germination or growth inhibition relative to control (IC50 values) were obtained from estimated parameters in the regression curves. The standard error (SE) of each estimation is provided. Data from phytotoxicity bioassays in the laboratory and greenhouse, ROS and cell death quantifications were analyzed by ANOVA using the InfoStat statistical software version 2015,^41 and Scheffe's test was employed to compare the means at α=0.05.

[1] = test system: creeping bentgrass (A. stolonifera); experiment: Germination bioassay with creeping bentgrass; assay type: in vivo, Agrostis stolonifera; set-up: key to Phytotoxicity at day 7, Creeping bentgrass: 0 = no effect; 5 = no growth or germination; conditions: for Phytotoxicity at day 7, Creeping bentgrass: 1 mM, 24-well plates, rating scale of 0 to 5; for inhibition at 1000 µg/mL: Agrostis stolonifera, 168 h, creeping bentgrass, 1 mg/mL, day 7; for creeping bentgrass germination: fractions at 1 mg/mL
Procedure: as §1, §2

[2] = test system: ryegrass, barnyardgrass, crabgrass, foxtail, millet, morningglory and velvetleaf; experiment: Pre-emergence bioassay in Petri dishes against different weeds; assay type: in vivo; conditions: 0.5 and 1.0 mM
Procedure: Compounds of Formulas III and IV above were tested in a pre-emergence bioassay (in Petri dishes) against different weeds at 0.5 and 1.0 mM. The seeds of different weeds were placed in Petri dishes with a filter paper and 4 mL of an aqueous solution of each compound or commercial herbicide.
Plant length was measured at 7 days of incubation.

cucumber cotyledon disks = experiment: Detection and measurement of reactive oxygen species (DCFDA); assay type: cell-based; conditions: 300 μM; for ROS levels: 16 h darkness then high light intensity 5 h; for ROS generation: complete darkness for 30 h
Procedure: ROS cellular localization was determined by confocal microscopy using the fluorescent probe 2′,7′-dichlorofluorescein diacetate (DCFDA). Cucumber cotyledon disks (1 cm) were treated as described for the electrolyte leakage assay. Five disks were placed in 5 cm-Petri plates and exposed to different dilutions of compounds of formulas III and IV (0, 100 and 300 μM). Disks were incubated in darkness for 16 h before exposure to high light intensity for 5 h, or in darkness for 30 h. As positive control, disks were exposed to the same solvent as treated tissues but with 10 mM hydrogen peroxide (H2O2) for 30 min in the light. After each treatment, they were vacuum-infiltrated in the dark with 50 μM DCFDA in 10 mM Tris-HCl pH 7.5, and ROS were visualized in an Eclipse TE-2000-E2 Nikon confocal microscope with excitation at 488 nm and emission at 515/530 nm. Green fluorescence intensities were quantified using the image processing package Fiji of ImageJ software.

onion root tips = experiment: Cell death determination by Evans blue staining, root tips; assay type: cell-based, Allium cepa; conditions: 4 days; for increase in relative cell death: 100 μM; for increase in relative cell death compared to 100 μM: 300 μM
Procedure: To evaluate cell death in roots, onion seeds were germinated and treated as described in postemergence assay with weed species. Onion seedlings were exposed to different doses of compounds of formulas III and IV (0, 100 and 300 μM) during 4 days. For the experiment with leaf disks 3-weeks-cucumber plants were used. One disk (1 cm) was placed in each well of a 12-well plate together with 1 mL of a 2% w/v sucrose/1 mM MES, pH 6.5 solution containing each of the compounds tested at the appropriate concentration (0, 100 or 300 μM) and acetone (1% v/v). Each assay was performed with leaf disks from different plants. Plates were sealed with Parafilm and incubated in a growth chamber at 21-27° C. with a 16/8 h light/dark cycle for 7 days.
Cell death was determined by Evans blue staining.^26 Root tips (5-mm sections) and leaf disks were incubated for 30 min in 0.25% w/v Evans blue aqueous solution at 25° C. on a rotary shaker. After staining, unbound dye was removed by extensive washing with deionized water. Three root tips (3 replicates) or one leaf disk (4 replicates) were ground in a tissue grind tube with 500 μL 1% w/v sodium dodecyl sulfate (SDS). The resulting suspension was centrifuged for 20 min at 20,000 g and the supernatant was used for dye quantification by monitoring the absorbance at 600 and 680 nm. Relative cell death was expressed as A600 for root tips and A600/A680 ratios for leaf disks.

[3] = Lactuca sativa, 168 h, read-out: IC50(μM) ± SE to inhibit germination
[4] = Lactuca sativa, 168 h, read-out: IC50(μM) ± SE to inhibit growth

| IC50 (lettuce (Lactuca sativa); read-out: IC50(μM) ± SE to inhibit germination) [µM] | SMILES | Phytotoxicity at day 7, Lettuce (lettuce (Lactuca sativa)) | IC50 (lettuce (Lactuca sativa); [3]) [µM] | IC50 (lettuce (Lactuca sativa); [4]) [µM] | inhibition at 1000 µg/mL (lettuce (Lactuca sativa); Lactuca sativa, 168 h) [%] | lettuce germination (lettuce (Lactuca sativa)) | IC50 (lettuce (Lactuca sativa); read-out: IC50(μM) ± SE to inhibit growth) [µM] | Phytotoxicity at day 7, Creeping bentgrass [1] | inhibition at 1000 µg/mL [1] [%] | creeping bentgrass germination [1] | effect on growth and germination of different weeds [2] | ROS levels (cucumber cotyledon disks) | ROS generation (cucumber cotyledon disks) | increase in relative cell death (onion root tips) | increase in relative cell death compared to 100 μM (onion root tips) |
| --- | --- | --- | --- | --- | --- | --- | --- | --- | --- | --- | --- | --- | --- | --- | --- |
|  | COc1c2ccoc2cc2oc(C)cc(=O)c12 [Formula IV, 4-methoxy-7-methyl-5H-furo[3,2-g]chromen-5-one] | 3 | 740 | 170 | 100 | completely inhibited | 175 ± 16 | 5 | 100 | completely inhibited | strongly interfered | significantly higher than in the control | not detected | two-fold | two-fold |
| 701 ± 93 | COc1c2occc2c(OC)c2c(=O)cc(C)oc12 [Formula III, 4,9-dimethoxy-7-methyl-5H-furo[3,2-g]chromen-5-one] | 3 | 700 | 110 | 100 | completely inhibited |  | 5 | 100 | completely inhibited | strongly interfered | significantly higher than in the control | not detected | two-fold | two-fold |
